{"source": "paper PMC3765847", "about": "“A polybromodiphenyl ether from an Indonesian marine sponge Lamellodysideaherbacea and its chemical derivatives inhibit protein tyrosine phosphatase 1B, an important target for diabetes treatment” (Journal of Natural Medicines, 2012)", "key": {"in vitro [1]": {"assay": "in vitro", "assay_type": "cell-based", "conditions": "human", "experimental": "Cytotoxic activity against Huh-7 cells was assessed by the MTT assay, a modification of our previously described method. Following the treatment of cells with test samples, 10 μL of MTT (5.0 mg/mL saline) was added to each well, the samples were incubated for 90 min at 37 °C and centrifuged (300g for 5 min), and the supernatant was aspirated off. The cells were lysed and solubilized by the addition of 100 μL of 0.040 N HCl in 2-propanol. The absorbance of each well was determined at 590 nm using an Inter-med model NJ-2300 Microplate Reader (Cosmo Bio Co., Ltd., Tokyo, Japan). Survival (%) was calculated relative to the control."}, "[2]": {"biological_target": "T1, protein tyrosine phosphatase 1B (PTP1B) (Homo sapiens, UniProt P18031)", "T1 sequence (P18031 1-435)": "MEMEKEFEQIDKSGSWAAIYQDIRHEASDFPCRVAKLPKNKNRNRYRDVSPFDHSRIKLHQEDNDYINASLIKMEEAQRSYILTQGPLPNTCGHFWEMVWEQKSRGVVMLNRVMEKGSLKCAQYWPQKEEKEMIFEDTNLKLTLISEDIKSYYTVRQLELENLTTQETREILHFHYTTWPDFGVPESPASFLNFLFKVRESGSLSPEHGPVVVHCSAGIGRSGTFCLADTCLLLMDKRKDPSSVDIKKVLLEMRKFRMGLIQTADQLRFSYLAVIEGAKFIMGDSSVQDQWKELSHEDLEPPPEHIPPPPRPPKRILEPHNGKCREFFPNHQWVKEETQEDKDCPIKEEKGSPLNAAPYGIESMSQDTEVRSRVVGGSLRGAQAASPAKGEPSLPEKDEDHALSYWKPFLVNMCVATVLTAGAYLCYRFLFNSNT", "assay": "PTP1B inhibitory assay (pNPP hydrolysis)", "assay_type": "biochemical", "conditions": "pNPP substrate, pH 6.0, 37 °C, 30 min", "experimental": "Protein tyrosine phosphatase 1B (PTP1B) inhibitory activity was determined by measuring the rate of hydrolysis of a substrate, p-nitrophenyl phosphate (pNPP, Sigma, St. Louis, MO, USA) according to the published method with a slight modification. Briefly, PTP1B (100 μL of 0.5 μg/mL stock solution, Enzo Life Sciences, Farmingdale, NY, USA) in 50 mM citrate buffer (pH 6.0) containing 0.1 M NaCl, 1 mM dithiothreitol (DTT), and 1 mM N,N,N′,N′-ethylenediamine tetraacetate (EDTA) were added to each well of a 96-well plastic plate (Corning Inc., Corning, NY, USA). […] The reaction was initiated by the addition of pNPP (100 μL of 4.0 mM stock solution) in the citrate buffer, incubated at 37 °C for 30 min, and terminated with the addition of 10 μL of a stop solution (10 M NaOH). The optical density of each well was measured at 405 nm using an MTP-500 microplate reader (Corona Electric Co., Ltd., Ibaraki, Japan). PTP1B inhibitory activity (%) is defined as [1 − (ABSsample − ABSblank)/(ABScontrol − ABSblank)] × 100, where ABSblank is the absorbance of wells containing only the buffer and pNPP, ABScontrol is the absorbance of p-nitrophenol liberated by the enzyme in the assay system without a test sample, and ABSsample is that with a test sample. The assays were performed in two duplicate experiments for all test samples. Oleanolic acid (Tokyo Chemical Industry, Tokyo, Japan), a known phosphatase inhibitor [15], was used as a positive control."}, "in vitro [3]": {"assay": "in vitro", "assay_type": "cell-based", "conditions": "human", "experimental": "(§1) HCT-15 and Jurkat cells were obtained from the Center for Biomedical Research, Institute of Development, Aging, and Cancer, Tohoku University (Miyagi, Japan). The cell lines were cultured in RPMI-1640 medium. The medium was supplemented with 10 % fetal bovine serum, 100 U/mL penicillin, and 100 μg/mL streptomycin. Exponentially growing cells, cultured in a humidified chamber at 37 °C containing 5.0 % CO2, were used for the experiments. Cytotoxic activity was evaluated using the colorimetric MTT assay. HCT-15 (1.0 × 10^4 cells in 100 μL) or Jurkat cells (2.0 × 10^4 cells in 100 μL) were added to each well of a 96-well plastic plate. A sample (1.0 μL in MeOH) was added to each well to make the final concentrations from 0 to 39–47 μM, and the cells were incubated for 48 h at 37 °C. MTT (10 μL of 5.5 mg/mL stock solution) and a cell lysate solution (90 μL, 40 % N,N-dimethylformamide, 20 % sodium dodecyl sulfate, 2.0 % CH3COOH and 0.030 % HCl) were added to each well, and the plate was shaken thoroughly by agitation at room temperature for overnight. The optical density of each well was measured at 570 nm using an MTP-500 microplate reader.", "remark": "listed apart in the source"}, "in vitro [4]": {"assay": "in vitro", "assay_type": "cell-based", "conditions": "human", "experimental": "as §1", "remark": "listed apart in the source"}}, "data": [{"molecule": "COc1c(Br)cc(Br)cc1Oc1c(O)cc(Br)cc1Br", "note": "[Compound 1, 2-(3′,5′-dibromo-2′-methoxyphenoxy)-3,5-dibromophenol]", "values": [{"measurement": "IC50", "setting": "in vitro [1]", "value": 32, "unit": "µM"}, {"measurement": "IC50", "setting": "[2]", "value": 0.85, "unit": "µM"}]}, {"molecule": "COc1cc(Br)cc(Br)c1Oc1cc(Br)cc(Br)c1OC", "note": "[Compound 2, 3,5-dibromo-2-(3′,5′-dibromo-2′-methoxyphenoxy)-1-methoxybenzene]", "values": [{"measurement": "IC50", "setting": "in vitro [1]", "value": 48, "unit": "µM"}, {"measurement": "IC50 at 48 h", "setting": "in vitro [3]", "value": "> 46", "unit": "µM"}, {"measurement": "IC50 at 48 h", "setting": "in vitro [4]", "value": "> 46", "unit": "µM"}, {"measurement": "IC50", "setting": "[2]", "value": 1.7, "unit": "µM"}]}, {"molecule": "COc1c(Br)cc(Br)cc1Oc1c(Br)cc(Br)cc1OC(C)=O", "note": "[Compound 3, 3,5-dibromo-2-(3′,5′-dibromo-2′-methoxyphenoxy)phenyl ethanoate]", "values": [{"measurement": "IC50", "setting": "[2]", "value": 0.62, "unit": "µM"}]}, {"molecule": "CCCC(=O)Oc1cc(Br)cc(Br)c1Oc1cc(Br)cc(Br)c1OC", "note": "[Compound 4, 3,5-Dibromo-2-(3′,5′-dibromo-2′-methoxyphenoxy)phenyl butanoate]", "values": [{"measurement": "IC50", "setting": "[2]", "value": 0.68, "unit": "µM"}]}, {"molecule": "CCCCCC(=O)Oc1cc(Br)cc(Br)c1Oc1cc(Br)cc(Br)c1OC", "note": "[Compound 5, 3,5-Dibromo-2-(3′,5′-dibromo-2′-methoxyphenoxy)phenyl hexanoate]", "values": [{"measurement": "IC50", "setting": "[2]", "value": 0.69, "unit": "µM"}]}, {"molecule": "COc1c(Br)cc(Br)cc1Oc1c(Br)cc(Br)cc1OC(=O)c1ccccc1", "note": "[Compound 6, 3,5-Dibromo-2-(3′,5′-dibromo-2′-methoxyphenoxy)phenyl benzoate]", "values": [{"measurement": "IC50", "setting": "[2]", "value": 0.97, "unit": "µM"}]}]}
